Numbers after ± are expanded uncertainties.
What was measured:
[1] = 101.33 kPa, Liquid; for electrical conductivity: Direct current cell with electrodes; for mass density: Vibrating tube method
[2] = mn = molality of the nth substance listed, in mol/kg; conditions: 100 kPa, Liquid, Capillary tube (Ostwald / Ubbelohde) method, m2 = 0

O [water]
[1], Capillary tube (Ostwald / Ubbelohde) method
Conditions | viscosity [mPa·s]
293.15 K | 1.003 ± 0.021
298.15 K | 0.89 ± 0.019
303.15 K | 0.797 ± 0.017
308.15 K | 0.719 ± 0.015
313.15 K | 0.653 ± 0.014

O [water] + CCCCn1cc[n+](C)c1.O=C([O-])c1ccccc1O
[2]
Conditions | viscosity [mPa·s]
293.15 K | 1.003 ± 0.021
298.15 K | 0.89 ± 0.019
303.15 K | 0.797 ± 0.017
308.15 K | 0.719 ± 0.015
313.15 K | 0.653 ± 0.014

CCCCn1cc[n+](C)c1.O=C([O-])c1ccccc1O [1-butyl-3-methylimidazolium salicylate]
[1], Cone and plate viscometry
Conditions | viscosity [mPa·s]
293.15 K | 1194.1 ± 80
298.15 K | 777.63 ± 46
303.15 K | 501.42 ± 26
308.15 K | 338.14 ± 15
313.15 K | 240 ± 9.8
318.15 K | 167.97 ± 6.1
323.15 K | 127.06 ± 4.2

[1]
Conditions | electrical conductivity [S/m] | mass density [kg/m3]
293.15 K | 0.0182 ± 0.0006 | 1152.27 ± 4.6
298.15 K | 0.0281 ± 0.0008 | 1149.05 ± 4.5
303.15 K | 0.0447 ± 0.0013 | 1145.65 ± 4.5
308.15 K | 0.0692 ± 0.0021 | 1142.22 ± 4.5
313.15 K | 0.0965 ± 0.0029 | 1138.76 ± 4.5
318.15 K | 0.156 ± 0.0047 | –
323.15 K | 0.22 ± 0.0066 | –
